Paper PMC12300743, “Unveiling the Solvent Effect: DMSO Interaction with Human Nerve Growth Factor and Its Implications for Drug Discovery” (Molecules, 2025)

Target: T1, hNGF (Homo sapiens, UniProt P01138)
T1 construct: gene NGF; homodimer; amine-coupled to the GCI chip
Assay: grating-coupled interferometry (Creoptix WAVE-delta, waveRAPID), hNGF immobilised by amine coupling
Format: binding

T1 sequence (P01138 122-239): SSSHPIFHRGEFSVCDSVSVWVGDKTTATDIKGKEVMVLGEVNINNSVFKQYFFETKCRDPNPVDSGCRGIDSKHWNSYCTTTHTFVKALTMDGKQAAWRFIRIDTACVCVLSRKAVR

- Kd: ~2100 µM
Compound: C[S+](C)[O-] [DMSO]
